# Patent US10716797B2, “Steroid alkaloids and compositions and kits thereof” (priority 2013, dated 2020)
# Entries after “also recorded” stand apart in the source; their conditions may differ.
# Assays:
# MRSA COL = test: MIC by microdilution, alone or in combination, MRSA COL; assay type: cell-based, Staphylococcus aureus; settings: agent used alone
# Procedure: Method. The minimal inhibitory concentrations (MICs), (i.e. lowest concentration of an antimicrobial that will inhibit the visible growth of a microorganism after incubation), of test compounds were determined against the normal or SCV strains of bacterial species from the Firmicutes phylum. Briefly, MICs were determined using the microdilution method in 96-well plates (Clinical and Laboratory Standards Institute (CLSI), 2011). Bacteria were inoculated at ˜10^5-10^6 CFU/mL and incubated at 35° C. for 20 h (normal strains) or 48 h (SCVs) in brain heart infusion (BHI) broth in order to allow SCVs to reach maximal growth as previously described (Mitchell et al., 2012). Then OD595 nm was read on a microplate reader. […] In this example the range of compound concentrations tested was 0.03 to 64 μg/ml using doubling increments. Strain Staphylococcus aureus NewbouldΔhemB (hemB) was also used in the experiments and is a laboratory-derived stable SCV created by the insertion of the macrolide resistance gene ermA in the hemB gene of this strain to create the SCV phenotype (defective electron transport chain and respiratory deficiency) through inactivation of hemin biosynthesis (Brouillette et al., 2004).
# In the present Example the range of compound concentrations tested, using doubling increments, was 0.03 to 64 μg/ml for Compound 14 and up to 1024 μg/ml for gentamicin (GEN), kanamycin (KAN) and cefalexin (CEF) when these compounds were used alone. Compound 14 (Cpd 14) was used at a fixed concentration of 4 μg/ml when added to other antibiotics. The combination of CEF and KAN was used in a 3:2 ratio and doubling increments were used to test the antibacterial activity against MRSA in the absence or presence of Compound 14.
# [1] = tested on: Staphylococcus aureus strain SH1000 grown in biofilms; test: Calgary biofilm device, CFU and crystal violet; assay type: cell-based; settings: hydrochloride
# Procedure: The bactericidal activity of tomatidine and Compound 14 in combination with gentamicin against Staphylococcus aureus was evaluated against this bacterium grown in a biofilm. Biofilms confer to bacteria protection from host defenses as well as tolerance to some antibiotics that target active and dividing cells. In addition, biofilms also provide protection against hydrodynamic shear forces, and biofilm infections are generally difficult to eradicate even in hosts with intact immune system (Costerton et al, 1999; Davies 2003).
# Staphylococcus aureus strain SH1000 of the normal phenotype (i.e., non-SCV) was used for its high ability to produce biofilms. The Calgary biofilm device (96-well plates with peg lids) was used to grow S. aureus in biofilms (Ceri et al, 1999) and to test the bactericidal activity of compounds (Moskowitz et al, 2004). Briefly, S. aureus SH1000 was grown in the Calgary biofilm device for 24 h at 35° C. until the biofilm forms on the pegs. The pegs were then washed, the medium was removed and the peg lids were dipped in fresh medium containing various amounts of test compounds. […] Replicate experiments were performed in order to quantify the residual amount of biofilm on pegs by crystal violet staining and spectrophotometry (absorbance [OD] at 562 nm).
substance,measurement,setting,value
3-(N-aminoethyl)-aminotomatidine hydrochloride [Compound 14],MIC,MRSA COL,16 µg/mL
same,killing of S. aureus in biofilms (Log 10 CFU/peg),"[1]; alone or in combination with gentamicin, 24 h",efficiently kills; also recorded: bactericidal
same,biofilm disrupting activity (residual OD562 nm),"[1]; used alone, Compound 14 at 4 μg/ml, TO at 8 μg/ml",superior biofilm disrupting activity; also recorded: can also disrupt biofilm formation
